Measured values taken from patent US20040209907A1, “Formulation and methods for the treatment of thrombocythemia” (priority 2003, published 2004).
Values joined by “and” are separate entries in the source; they are usually repeats but may differ in a detail not shown here. Identical values can stand only once. Like-named read-outs stand apart in the source and are kept apart here.

Tests used:
[1] = Plasma levels of anagrelide and metabolite A after oral, intra-venous and transdermal anagrelide in the mini-pig; type: in vivo; details: for AUC / Cmax: mini-pig n=3, plasma analyte = label
Protocol: The plasma level of anagrelide and metabolite A were measured in a mini-pig study following oral, intra-venous and transdermal administration of anagrelide.
The comparative bioavailability of anagrelide following oral administration of 1 mg or the dermal application of a saturated solution to ˜45 cm2 surface area of the back was assessed in three minipigs. Standard AgrylinR capsules (2×0.5 mg) were administered orally to fasted animals, whereas the dermal formulation was a saturated solution of the drug in 5% (v/v) oleic acid in propylene glycol.
Plasma concentrations of anagrelide and its metabolites were determined by a validated LC-MS/MS assay. Pharmacokinetic parameters were calculated by non-compartmental methods using WinNonlin.
Studies in the Mini-Pig (n=3)

[2] = Pharmacokinetics in healthy male volunteers after a single dose of anagrelide; details: healthy male volunteers N=38; single 1 mg oral dose of anagrelide; analyte = label
Text: Summary of mean Pharmacokinetic Parameters of Anagrelide in Volunteers after a Single Dose of the Drug

[3] = Pharmacokinetics in patients with myeloproliferative disease at steady state; details: patients N=18, multiple dosing, analyte = label
[4] = Permeation of anagrelide from saturated solutions through human epidermis (Franz-type diffusion cells); type: in vitro ADME
Protocol: Saturated Solutions of Anagrelide were Prepared in:
1. 5% lauryl alcohol in isopropyl myristate (LA in IPM)
2. 2% oleic acid in propylene glycol (OA in PG)
3. 0.5% oleic acid in propylene glycol
4. 5% glyceryl monooleate in isopropyl myristate (GMO in IPM)
5. 5% glyceryl laurate in isopropyl myristate (GLA in IPM)
9. Isopropyl myristate (IPM)
11. 5% oleic acid (OA) in propylene glycol (PG)
12. 70:30 (v/v) dimethyl sulfoxide: propylene glycol
An analytical method using HPLC with UV detection was established for anagrelide. Six point calibration curves were generated over the range 0.2-2 μg/ml were generated for each analytical run and the precision confirmed on each occasion by the making at least 7 replicate injections of the highest standard. Details of the equipment and methods used are given below.
Human epidermis was prepared by the heat separation technique (A. M. Kligman and E Christophers, Preparation of isolated sheets of human stratum corneum. Arch Dermatol., vol. 88, 70-73 (1963). Water was heated to 60° C. on a hotplate and the skin was immersed in the water at this temperature for 1 minute. The skin was then removed from the water and the epidermis carefully peeled off using blunt tweezers. Care was taken not to introduce any holes in this process. The epidermal tissue was placed on a filter paper stratum corneum uppermost. The samples were then stored in freezer.
Franz-type horizontal glass diffusion cells were used. The receptor medium was thermostatted at 37° C., to represent body temperature. There will be a temperature gradient across the membrane and applied solution, but this should simulate ‘in use’ conditions. Under these conditions the surface temperature of the skin was 32° C.
The skin samples were thawed overnight before use. The epidermal membranes were cut to size and were placed between the two halves of the cells. High vacuum grease was used to seal the two compartments. The cell was clamped using a metal holder. The receptor arm was closed using glass caps to prevent evaporation. The donor compartment was occluded to prevent any donor solution evaporation
The receptor medium was first introduced and equilibrated for 1 h. 1 mL of the saturated solution with excess drug was applied in the donor compartment. Excess drug was used to ensure there is no depletion of the drug during the course of the experiment. The starting time was taken as the time at which the solutions were applied.
At set sampling points (12, 24, 30, 36 and 48 hours), 200 μL of the receptor phase from each diffusion cell was removed for analysis of the anagrelide and replaced by an equivalent of fresh receptor phase solution pre-thermostatted to 37° C.
For each solution, six replicates were tested. A control (without any formulation applied in the donor compartment) was also examined.

[5] = as above; type: in vitro ADME; details: for Amt permeated at 24 hours: human epidermis
CD34+ cells = assay: Megakaryocyte number in thrombopoietin-expanded CD34+ cell cultures; type: cell-based; details: for effect on number of megakaryocytes: day-8 cultures; for number of megakaryocytes: day-12 cultures
Text: Cells were harvested for analysis after 4 or 8 days of the initiation of drug treatment (day-8 and day-12 cultures, respectively). As shown in FIG. 2 in day-8 cultures no effect of anagrelide could be detected.

PDE III = PDE III activity of anagrelide and metabolite A; type: biochemical
Protocol: Inhibition of PDE III, which is present in myocardium, causes an increase in both the force and rate of cardiac contractility. These are undesirable side effects for a platelet reducing agent.
The PDE III activity of both anagrelide and metabolite A was evaluated by standard methods.

platelet = assay: Therapeutic platelet lowering action
[6] = dog, in vivo
Protocol: (§1) A study was conducted in a large group of dogs comparing metabolite A with the standard reference inotrope milrinone.

[7] = Cardiovascular study in dogs comparing metabolite A with milrinone
Protocol: as §1

[8] = anagrelide Dermal, saturated solution in 5% OA in PG, ~45 cm2, 24 h
[9] = anagrelide Intra-venous 1 mg/propylene glycol

O=C1CN2Cc3c(ccc(Cl)c3Cl)N=C2N1 [Anagrelide]
AUC [1, 8]: 10.8 ng·h/mL | Cmax [1, 8]: 0.69 ng/mL | AUC [1, 9]: 50.7 ng·h/mL | Cmax [1, 9]: 87.1 ng/mL | AUC ([1]; anagrelide Oral 1 mg/capsule): 10.3 ng·h/mL | Cmax ([1]; anagrelide Oral 1 mg/capsule): 1.45 ng/mL | decline in concentrations post-peak prior to wash-off at 24 h ([1]; mini-pig, dermal application): 50% | average dermal flux ([1]; mini-pig, dermal saturated solution in 5% oleic acid in propylene glycol, estimated): 197 ng/cm2/h | maximum plasma concentration lower following dermal application versus oral ([1]; mini-pig, dermal versus oral 1 mg): 50% | exposure to anagrelide, dermal versus oral route ([1]; mini-pig, oral 1 mg versus dermal saturated solution): comparable exposure | AUC0-inf ± RSD (%) [2]: 11.1 ± 37.6 ng·h/mL | Cmax ± RSD (%) [2]: 4.99 ± 74.4 ng/mL | Tmax ± RSD (%) [2]: 1.3 ± 53.8 h | t1/2 ± RSD (%) [2]: 1.5 ± 49.8 h | AUC0-t ± RE (AUC over dosage interval) [3]: 18.64(5.28) ng · h/mL | Cmax ± RE [3]: 5.31(1.33) ng/mL | Tmax ± RE [3]: 2.00(0.32) hours | t1/2 ± RE [3]: 2.89(0.73) hours | Amt permeated at 24 hours ([4]; saturated solution in 2% OA in PG): 8.9 μg/cm^2 | Amt permeated at 24 hours ([4]; saturated solution in 5% GLA in IPM): 5.2 μg/cm^2 | Amt permeated at 24 hours ([4]; saturated solution in 5% GMO in IPM): 5.7 μg/cm^2 | Amt permeated at 24 hours ([4]; saturated solution in 5% LA in IPM): 0.5 μg/cm^2 | Amt permeated at 24 hours ([4]; saturated solution in 5% OA in PG): 4.4 μg/cm^2 | Amt permeated at 24 hours ([4]; saturated solution in IPM (isopropyl myristate)): 1.5 μg/cm^2 | Cav from the maximum likely flux rate through human skin ([5]; calculated for transdermal delivery in man): 3 to 4 ng/mL | Amt permeated at 24 hours ([5]; saturated solution in 0.5% OA in PG): 0.5 μg/cm^2 | Amt permeated at 24 hours ([5]; saturated solution in 70:30 DMSO:PG ('gold standard')): 8.4 μg/cm^2 | Amt permeated at 24 hours ([5]; saturated solution in 70:30 DMSO:PG ('gold standard'), listed as anagrelide): 8.41 μg/cm^2 | Amt permeated at 24 hours ([5]; saturated solution in Ethanol): 0.9 μg/cm^2 | Amt permeated at 24 hours ([5]; saturated solution in Formulation 1 (Labrasol, Plurol Oleique, Labrafac Lipophile, propylene glycol)): 2.1 μg/cm^2 | Amt permeated at 24 hours ([5]; saturated solution in Formulation 2 (Labrafil M 1944CS, Labrafac Lipophile, Labrasol, Plurol oleique, water)): 1.5 μg/cm^2 | Amt permeated at 24 hours ([5]; saturated solution in Glycerol): 0.04 μg/cm^2 | Amt permeated at 24 hours ([5]; saturated solution in PG (propylene glycol)): 0.5 μg/cm^2 and 0.54 μg/cm^2 | Amt permeated at 24 hours ([5]; saturated solution in PG (propylene glycol), listed as anagrelide): 0.5 μg/cm^2 | Amt permeated at 24 hours ([5]; saturated solution in Transcutol): 0.0 μg/cm^2 and 0 μg/cm^2 | Amt permeated at 24 hours ([5]; saturated solution in Triacetin): 0.0 μg/cm^2 and 0 μg/cm^2 | effect on number of megakaryocytes (CD34+ cells; continuous exposure to 4 ng/ml anagrelide (~13 nM)): no effect | number of megakaryocytes (CD34+ cells; continuous exposure to 4 ng/ml anagrelide (~13 nM), p=0.038, n=3): 77±5 % of control | effect on number of megakaryocytes (CD34+ cells; single dose of 40 ng/ml anagrelide (~133 nM)): no effect | number of megakaryocytes (CD34+ cells; single dose of 40 ng/ml anagrelide (~133 nM), p=0.015, n=3): 68±4 % if control

O=C1NC2=Nc3ccc(Cl)c(Cl)c3CN2C1O (stereo not drawn) [Metabolite A]
potency relative to anagrelide as an inhibitor of PDEIII (PDE III; earlier in vitro studies): 40 fold | PDE III potency relative to anagrelide (PDE III; standard methods): 40 × | potency as a cardiovascular agent relative to anagrelide (PDE III; statement): ~40 times | therapeutic platelet lowering action relative to anagrelide (platelet): equipotent | effect on (+)dP/dt max (a measure of contractility) [6]: well sustained and largely dose-dependent | maximum decrease in mean blood pressure [6]: about 30 mmHg | mean maximum increase in heart rate [6]: ~66 b.p.m. | potency relative to milrinone in decreasing mean blood pressure [6]: 10 ×

Cc1[nH]c(=O)c(C#N)cc1-c1ccncc1 [milrinone]
effect on (+)dP/dt max (a measure of contractility) [7]: immediate, dose-dependent increases in (+)dP/dt max, but they were not well sustained | maximum decrease in mean blood pressure ([7]; dose-dependent): about 30 mmHg | mean maximum increase in heart rate ([7]; dose-dependent): ~76 b.p.m.
